Reference: article PMC3004370, “PI3Kα Inhibitors That Inhibit Metastasis” (Oncotarget, 2010)

Experiments:
[1] = target: T1, p110γ (Homo sapiens, UniProt P48736); experiment: Biochemical PI3K inhibition assay, p110γ
T1 construct: His-tag; made in house; host or cells: Sf9 insect cells (baculovirus)
Description: (§1) cDNA clones of PIK3CA, PIK3CB and PIK3CG were obtained from Origene (Rockville, MD, USA). PIK3CD was generously provided by Novartis Pharmaceuticals. The cDNA clones were sub-cloned into pFastBac His-Tag (Invitrogen, Carlsbad, CA, USA) and baculovirus clones were generated by the Bac-to-Bac expression system (Invitrogen). p110α, p110β and p110δ were co-expressed in Sf9 insect cells (Invitrogen) with a nSH2-iSH2 fragment of the regulatory subunit p85 comprising AA residues 322 to 600 [4]. p110γ was expressed without a regulatory subunit. Sf9 cells were lysed in a buffer containing 50 mM sodium phosphate, pH 8.0, 400 mM NaCl, 5% glycerol, 1% Triton X-100, 10 mM 2-mercaptoethanol, 1 mM orthovanadate, 10 mM imidazole, and sonicated on ice for 1 minute. Proteins were purified by adding Ni-NTA Superflow beads (Qiagen, Valencia, CA, USA) to the lysate and subsequent rolling for 30 min at 4°C. Beads were washed twice with 50 mM phosphate buffer, pH 8.0, 0.5 M NaCl, 50 mM Imidazole, 2 mM DTT and eluted in the same buffer but with 200 mM imidazole. Purified PI3K's were mixed 1:1 with glycerol and stored at -20°C.
(§2) J-series inhibitors were dissolved, serial diluted in DMSO and deposited into 96 well plates at a final DMSO concentration of 1%. We used a novel assay to determine their potency and selectivity. In brief, micelles of 2.5 μg L-a-Phosphatidylinositol and 2.5 μg 1,2-Diacyl-sn-glycero-3-phospho-L-serine were formed by sonication, mixed with the individual PI3K isoforms and added to the drug dilutions in a reaction buffer containing 10 mM HEPES, 25 mM NaCl, 0.125 μg/μl BSA, and 2 mM BME (final concentrations). Reactions were timed after the addition of 10 μM ATP with 40 μCi/ml γ-32P-ATP (PerkinElmer, Waltham, MA, USA) and 2 mM MgCl2 (all final concentrations). The reactions were terminated after two hours by the addition of 2 N HCl and the lipids extracted with 1:1 MetOH/Chloroform. Radio-labeled phosphatidyl-inositol-3-phosphate in the extracted organic fraction was quantified after the addition of Microscint O (PerkinElmer) using a TopCount 96 well plate scintillation counter (PerkinElmer). IC50 concentrations and inhibition curves were calculated using Prism 5 (GraphPad Software, La Jolla, CA).

[2] = target: T2, p110δ (Homo sapiens, UniProt O00329); experiment: Biochemical PI3K inhibition assay, p110δ; settings: 10 μM ATP, two hours
T2 construct: His-tag; made in house; host or cells: Sf9 insect cells (baculovirus)
Description: as §1, §2

[3] = target: T3, ACK1 (Homo sapiens, UniProt Q07912); experiment: Millipore KinaseProfiler; type: biochemical; settings: read-out: % of control
T3 construct: purchased Millipore (KinaseProfiler service)
Description: (§3) Supplement oncotarget-01-339-s001.doc, table 1: Supplementary Table 1. Millipore KinaseProfiler excerpt | column: % of control

[4] = target: T4, CDK5/p35 (Homo sapiens, UniProt Q00535); experiment: Millipore KinaseProfiler; type: biochemical; settings: read-out: % of control
T4 construct: purchased Millipore (KinaseProfiler service)
Description: as §3

[5] = target: T5, CLK2 (Homo sapiens, UniProt P49760); experiment: Millipore KinaseProfiler; type: biochemical; settings: read-out: % of control
T5 construct: purchased Millipore (KinaseProfiler service)
Description: as §3

[6] = target: T6, EGFR(T790M,L858R) (Homo sapiens, UniProt P00533, L858R/T790M); experiment: Millipore KinaseProfiler; type: biochemical; settings: read-out: % of control
T6 construct: purchased Millipore (KinaseProfiler service)
Description: as §3

[7] = target: T7, EphB1 (Homo sapiens, UniProt P54762); experiment: Millipore KinaseProfiler; type: biochemical; settings: read-out: % of control
T7 construct: purchased Millipore (KinaseProfiler service)
Description: as §3

[8] = target: T8, Flt3 (Homo sapiens, UniProt P36888); experiment: Millipore KinaseProfiler; type: biochemical; settings: read-out: % of control
T8 construct: purchased Millipore (KinaseProfiler service)
Description: as §3

[9] = target: T9, Flt3(D835Y) (Homo sapiens, UniProt P36888, D835Y); experiment: Millipore KinaseProfiler; type: biochemical; settings: read-out: % of control
T9 construct: purchased Millipore (KinaseProfiler service)
Description: as §3

[10] = target: T10, Haspin (Homo sapiens, UniProt Q8TF76); experiment: Millipore KinaseProfiler; type: biochemical; settings: read-out: % of control
T10 construct: purchased Millipore (KinaseProfiler service)
Description: as §3

[11] = target: T11, IRAK1 (Homo sapiens, UniProt P51617); experiment: Millipore KinaseProfiler; type: biochemical; settings: read-out: % of control
T11 construct: purchased Millipore (KinaseProfiler service)
Description: as §3

[12] = target: T12, IRAK4 (Homo sapiens, UniProt Q9NWZ3); experiment: Millipore KinaseProfiler; type: biochemical; settings: read-out: % of control
T12 construct: purchased Millipore (KinaseProfiler service)
Description: as §3

[13] = target: T13, LIMK1 (Homo sapiens, UniProt P53667); experiment: Millipore KinaseProfiler; type: biochemical; settings: read-out: % of control
T13 construct: purchased Millipore (KinaseProfiler service)
Description: as §3

[14] = target: T14, MELK (Homo sapiens, UniProt Q14680); experiment: Millipore KinaseProfiler; type: biochemical; settings: read-out: % of control
T14 construct: purchased Millipore (KinaseProfiler service)
Description: as §3

[15] = target: T15, Mer (Homo sapiens, UniProt Q12866); experiment: Millipore KinaseProfiler; type: biochemical; settings: read-out: % of control
T15 construct: purchased Millipore (KinaseProfiler service)
Description: as §3

[16] = target: T16, NEK2 (Homo sapiens, UniProt P51955); experiment: Millipore KinaseProfiler; type: biochemical; settings: read-out: % of control
T16 construct: purchased Millipore (KinaseProfiler service)
Description: as §3

[17] = target: T17, PKCθ (Homo sapiens, UniProt Q04759); experiment: Millipore KinaseProfiler; type: biochemical; settings: read-out: % of control
T17 construct: purchased Millipore (KinaseProfiler service)
Description: as §3

[18] = target: T18, PTK5 (Homo sapiens, UniProt P42685); experiment: Millipore KinaseProfiler; type: biochemical; settings: read-out: % of control
T18 construct: purchased Millipore (KinaseProfiler service)
Description: as §3

[19] = target: T19, Ret (Homo sapiens, UniProt P07949); experiment: Millipore KinaseProfiler; type: biochemical; settings: read-out: % of control
T19 construct: purchased Millipore (KinaseProfiler service)
Description: as §3

[20] = target: T20, Src(1-530) (Homo sapiens, UniProt P12931); experiment: Millipore KinaseProfiler; type: biochemical; settings: read-out: % of control
T20 construct: Src(1-530); purchased Millipore (KinaseProfiler service)
Description: as §3

[21] = target: T21, TBK1 (Homo sapiens, UniProt Q9UHD2); experiment: Millipore KinaseProfiler; type: biochemical; settings: read-out: % of control
T21 construct: purchased Millipore (KinaseProfiler service)
Description: as §3

[22] = target: T22, TrkA (Homo sapiens, UniProt P04629); experiment: Millipore KinaseProfiler; type: biochemical; settings: read-out: % of control
T22 construct: purchased Millipore (KinaseProfiler service)
Description: as §3

[23] = target: T23, Yes (Homo sapiens, UniProt P07947); experiment: Millipore KinaseProfiler; type: biochemical; settings: read-out: % of control
T23 construct: purchased Millipore (KinaseProfiler service)
Description: as §3

[24] = target: T24, cSRC (Homo sapiens, UniProt P12931); experiment: Millipore KinaseProfiler; type: biochemical; settings: read-out: % of control
T24 construct: purchased Millipore (KinaseProfiler service)
Description: as §3

[25] = target: T25, mTOR (Homo sapiens, UniProt P42345); experiment: Panel of 273 kinases, mTOR; type: biochemical
T25 construct: purchased Millipore (KinaseProfiler service)
Procedure: The compounds were also tested for their capacity to inhibit two common mutant forms of PI3Kα – E545K and H1047R [2, 33]. None of the compounds discriminated between the wild-type (wt) and mutant forms of the enzyme (data not shown). Finally, we also tested one of the compounds (J124, chosen for reasons discussed later) against a panel of 273 kinases.

T1 sequence (P48736 whole entry): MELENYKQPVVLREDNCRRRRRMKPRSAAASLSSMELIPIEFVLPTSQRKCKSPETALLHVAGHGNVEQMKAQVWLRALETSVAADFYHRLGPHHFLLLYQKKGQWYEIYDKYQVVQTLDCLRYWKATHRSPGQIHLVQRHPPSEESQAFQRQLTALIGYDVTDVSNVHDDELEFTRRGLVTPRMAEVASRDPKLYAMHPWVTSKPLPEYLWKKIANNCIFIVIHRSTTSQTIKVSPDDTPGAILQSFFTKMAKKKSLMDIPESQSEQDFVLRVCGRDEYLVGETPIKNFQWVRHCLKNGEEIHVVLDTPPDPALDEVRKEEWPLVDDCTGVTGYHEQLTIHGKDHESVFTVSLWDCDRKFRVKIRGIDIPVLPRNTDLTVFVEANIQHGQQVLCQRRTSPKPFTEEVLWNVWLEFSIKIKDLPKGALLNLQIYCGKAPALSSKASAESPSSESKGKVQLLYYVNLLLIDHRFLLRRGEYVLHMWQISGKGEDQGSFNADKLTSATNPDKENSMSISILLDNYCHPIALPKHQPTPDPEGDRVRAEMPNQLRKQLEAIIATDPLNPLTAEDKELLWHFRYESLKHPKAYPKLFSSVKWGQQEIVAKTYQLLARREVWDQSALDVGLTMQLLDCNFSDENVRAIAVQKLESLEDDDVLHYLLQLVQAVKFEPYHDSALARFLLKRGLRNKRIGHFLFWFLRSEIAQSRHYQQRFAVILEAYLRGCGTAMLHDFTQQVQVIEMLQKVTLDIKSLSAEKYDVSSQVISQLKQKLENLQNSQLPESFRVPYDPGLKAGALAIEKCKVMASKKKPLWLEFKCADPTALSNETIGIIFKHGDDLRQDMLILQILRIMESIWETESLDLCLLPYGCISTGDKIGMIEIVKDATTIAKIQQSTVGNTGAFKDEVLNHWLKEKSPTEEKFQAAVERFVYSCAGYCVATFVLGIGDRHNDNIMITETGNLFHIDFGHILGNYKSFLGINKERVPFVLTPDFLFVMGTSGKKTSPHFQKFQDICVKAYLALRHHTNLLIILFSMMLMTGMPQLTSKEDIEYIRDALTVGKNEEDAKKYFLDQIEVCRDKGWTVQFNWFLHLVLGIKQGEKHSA
T11 sequence (P51617 whole entry): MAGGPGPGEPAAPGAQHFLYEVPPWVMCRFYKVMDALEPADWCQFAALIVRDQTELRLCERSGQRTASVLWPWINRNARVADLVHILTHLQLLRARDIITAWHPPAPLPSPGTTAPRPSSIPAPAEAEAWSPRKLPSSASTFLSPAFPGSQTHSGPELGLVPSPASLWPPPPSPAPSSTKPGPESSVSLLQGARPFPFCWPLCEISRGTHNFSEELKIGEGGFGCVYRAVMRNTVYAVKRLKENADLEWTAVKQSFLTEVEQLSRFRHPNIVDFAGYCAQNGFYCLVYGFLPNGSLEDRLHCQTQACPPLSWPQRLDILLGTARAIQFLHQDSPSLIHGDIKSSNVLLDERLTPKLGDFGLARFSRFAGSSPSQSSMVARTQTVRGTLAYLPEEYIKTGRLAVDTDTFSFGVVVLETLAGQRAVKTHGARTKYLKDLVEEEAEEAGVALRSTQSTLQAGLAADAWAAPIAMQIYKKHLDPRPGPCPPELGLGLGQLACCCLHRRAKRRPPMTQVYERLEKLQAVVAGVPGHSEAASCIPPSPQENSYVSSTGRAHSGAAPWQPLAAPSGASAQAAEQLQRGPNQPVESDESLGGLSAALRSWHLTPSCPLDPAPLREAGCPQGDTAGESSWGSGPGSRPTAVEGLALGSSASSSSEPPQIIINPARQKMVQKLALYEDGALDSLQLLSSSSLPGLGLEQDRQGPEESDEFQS
T21 sequence (Q9UHD2 whole entry): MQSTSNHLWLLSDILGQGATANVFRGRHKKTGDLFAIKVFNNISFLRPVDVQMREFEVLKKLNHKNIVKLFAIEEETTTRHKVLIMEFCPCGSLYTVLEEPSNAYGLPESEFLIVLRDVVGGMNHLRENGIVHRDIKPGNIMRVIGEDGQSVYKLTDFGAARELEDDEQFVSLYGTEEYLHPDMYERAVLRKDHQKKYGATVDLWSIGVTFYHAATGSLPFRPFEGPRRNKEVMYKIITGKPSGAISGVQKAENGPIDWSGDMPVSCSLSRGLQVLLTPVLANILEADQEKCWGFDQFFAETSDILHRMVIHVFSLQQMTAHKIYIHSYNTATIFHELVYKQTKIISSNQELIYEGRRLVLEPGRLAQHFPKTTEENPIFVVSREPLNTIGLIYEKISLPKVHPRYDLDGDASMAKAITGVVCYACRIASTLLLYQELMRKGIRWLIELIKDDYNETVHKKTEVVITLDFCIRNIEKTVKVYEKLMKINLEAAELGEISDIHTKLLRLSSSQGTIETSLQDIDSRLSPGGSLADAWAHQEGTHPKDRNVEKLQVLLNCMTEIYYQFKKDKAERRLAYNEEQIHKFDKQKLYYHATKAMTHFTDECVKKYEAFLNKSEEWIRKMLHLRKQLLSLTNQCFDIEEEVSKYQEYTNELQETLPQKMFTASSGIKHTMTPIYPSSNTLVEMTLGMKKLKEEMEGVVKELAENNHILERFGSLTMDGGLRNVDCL
T10 sequence (Q8TF76 whole entry): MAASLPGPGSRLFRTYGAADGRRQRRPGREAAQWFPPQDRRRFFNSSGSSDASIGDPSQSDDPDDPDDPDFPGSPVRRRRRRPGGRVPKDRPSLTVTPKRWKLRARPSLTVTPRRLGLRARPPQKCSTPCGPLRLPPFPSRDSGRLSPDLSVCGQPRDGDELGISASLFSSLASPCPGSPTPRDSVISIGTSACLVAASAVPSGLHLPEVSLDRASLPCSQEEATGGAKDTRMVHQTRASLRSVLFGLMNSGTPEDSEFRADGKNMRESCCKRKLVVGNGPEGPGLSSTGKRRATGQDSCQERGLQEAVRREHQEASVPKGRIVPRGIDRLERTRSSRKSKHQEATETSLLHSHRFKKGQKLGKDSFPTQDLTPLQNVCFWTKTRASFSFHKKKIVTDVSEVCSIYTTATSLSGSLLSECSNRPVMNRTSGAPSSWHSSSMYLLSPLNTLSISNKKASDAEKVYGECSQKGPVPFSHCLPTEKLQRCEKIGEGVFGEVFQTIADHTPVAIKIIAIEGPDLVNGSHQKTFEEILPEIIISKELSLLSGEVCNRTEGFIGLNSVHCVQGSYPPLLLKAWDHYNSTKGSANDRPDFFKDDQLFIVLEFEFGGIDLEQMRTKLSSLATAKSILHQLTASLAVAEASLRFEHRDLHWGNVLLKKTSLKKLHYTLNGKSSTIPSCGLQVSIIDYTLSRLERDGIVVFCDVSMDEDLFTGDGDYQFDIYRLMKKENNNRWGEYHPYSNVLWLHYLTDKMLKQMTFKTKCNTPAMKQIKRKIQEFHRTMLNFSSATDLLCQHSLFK
T23 sequence (P07947 whole entry): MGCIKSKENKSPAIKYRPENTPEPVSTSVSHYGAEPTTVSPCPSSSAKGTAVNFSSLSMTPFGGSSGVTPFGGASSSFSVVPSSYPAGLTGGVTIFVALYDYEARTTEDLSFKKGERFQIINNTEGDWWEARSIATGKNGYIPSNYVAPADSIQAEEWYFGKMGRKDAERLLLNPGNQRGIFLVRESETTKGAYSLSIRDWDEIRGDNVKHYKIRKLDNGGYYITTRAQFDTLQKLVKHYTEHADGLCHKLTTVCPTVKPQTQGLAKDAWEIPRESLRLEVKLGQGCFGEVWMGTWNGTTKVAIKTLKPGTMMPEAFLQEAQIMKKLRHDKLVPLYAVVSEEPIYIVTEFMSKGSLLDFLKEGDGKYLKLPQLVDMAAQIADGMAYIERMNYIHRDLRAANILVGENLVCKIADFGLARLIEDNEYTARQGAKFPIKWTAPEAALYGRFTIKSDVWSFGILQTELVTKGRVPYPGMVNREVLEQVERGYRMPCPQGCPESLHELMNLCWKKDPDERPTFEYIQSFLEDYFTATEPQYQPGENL
T19 sequence (P07949 29-1114): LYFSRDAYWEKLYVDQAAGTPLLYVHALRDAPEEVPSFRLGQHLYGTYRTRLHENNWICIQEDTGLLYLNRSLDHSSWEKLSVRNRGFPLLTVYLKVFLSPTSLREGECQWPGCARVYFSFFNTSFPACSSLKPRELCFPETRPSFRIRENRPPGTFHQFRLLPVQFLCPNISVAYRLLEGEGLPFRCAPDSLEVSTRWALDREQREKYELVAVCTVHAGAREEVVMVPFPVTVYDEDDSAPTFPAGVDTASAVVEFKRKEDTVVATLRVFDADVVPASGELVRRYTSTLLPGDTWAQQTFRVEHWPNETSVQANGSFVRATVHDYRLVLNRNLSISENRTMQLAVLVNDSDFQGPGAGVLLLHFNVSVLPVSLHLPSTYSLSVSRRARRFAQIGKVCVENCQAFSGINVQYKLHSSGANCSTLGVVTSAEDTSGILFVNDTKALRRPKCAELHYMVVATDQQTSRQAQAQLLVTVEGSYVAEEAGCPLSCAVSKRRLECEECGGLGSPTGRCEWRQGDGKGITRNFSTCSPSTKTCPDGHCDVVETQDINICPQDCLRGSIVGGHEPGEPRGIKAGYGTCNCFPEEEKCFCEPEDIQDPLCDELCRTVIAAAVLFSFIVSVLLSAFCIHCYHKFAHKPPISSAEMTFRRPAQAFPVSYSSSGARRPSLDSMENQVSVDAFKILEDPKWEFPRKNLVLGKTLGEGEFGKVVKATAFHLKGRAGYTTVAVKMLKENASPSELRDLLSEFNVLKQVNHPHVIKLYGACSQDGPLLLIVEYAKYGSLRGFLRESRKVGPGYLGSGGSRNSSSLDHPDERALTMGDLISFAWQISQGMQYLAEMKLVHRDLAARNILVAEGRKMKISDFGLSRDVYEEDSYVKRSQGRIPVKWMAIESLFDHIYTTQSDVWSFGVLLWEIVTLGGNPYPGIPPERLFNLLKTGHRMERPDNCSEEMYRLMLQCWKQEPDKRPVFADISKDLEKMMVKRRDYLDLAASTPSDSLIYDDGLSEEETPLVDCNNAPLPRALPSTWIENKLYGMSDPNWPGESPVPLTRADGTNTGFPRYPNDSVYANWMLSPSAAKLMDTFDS

For CCN(/N=C/c1cnc2ccc(Br)cn12)S(=O)(=O)c1cc([N+](=O)[O-])c(NC(=O)C(F)(F)F)cc1C [J124], the IC50 ([1]; 10 μM ATP, two hours, no regulatory subunit) was 380 nM, the “selectivity against PI3Kγ” value ([1]; relative to PI3Kα) was over 30 fold and the IC50 [2] was 160 nM. It also gave a remaining activity at 0.011 µM [3] of 30%, a remaining activity at 0.011 µM [4] of 37% and a remaining activity at 0.011 µM [5] of 5%. It also gave a remaining activity at 0.011 µM [6] of 46%, a remaining activity at 0.011 µM [7] of 46% and a remaining activity at 0.011 µM [8] of 10%. The remaining activity at 0.011 µM [9] was 3%, the remaining activity at 0.011 µM [10] was -1% and the remaining activity at 0.011 µM [11] was 42%. For the same compound, the remaining activity at 0.011 µM [12] was 48%, the remaining activity at 0.011 µM [13] was 36% and the remaining activity at 0.011 µM [14] was 23%. The remaining activity at 0.011 µM [15] was 33%, the remaining activity at 0.011 µM [16] was 42% and the remaining activity at 0.011 µM [17] was 35%. For the same compound, the remaining activity at 0.011 µM [18] was 11%, the remaining activity at 0.011 µM [19] was 49% and the remaining activity at 0.011 µM [20] was 48%. The remaining activity at 0.011 µM [21] was 46%, the remaining activity at 0.011 µM [22] was 11% and the remaining activity at 0.011 µM [23] was 40%. For the same compound, the remaining activity at 0.011 µM [24] was 48% and the “inhibition of mTOR with an IC50 of 11 nM or lower” value [25] was “not mTOR”.
